Ends that are not written are not given here.
Columns and labels:
HIV-1 IIIB = experiment: Inhibition of HIV-1IIIB infection of MT-2 cells, p24 ELISA; assay type: cell-based; conditions: HIV-1 IIIB at 100 TCID50, peptide overnight, p24 antigen ELISA on fourth day post-infection
Description: The inhibitory activity of the NHR- and CHR-peptides on HIV-1IIIB infection was determined as previously described. In brief, 1×10^4 MT-2 cells were infected with HIV-1 IIIB at 100 TCID50 (50% tissue culture infective dose) in 200 µl culture medium in the presence or absence of the test peptide overnight. Then the culture supernatants were removed, and fresh media were added. On the fourth day post-infection, 100 µl of culture supernatants were collected from each well, mixed with equal volumes of 5% Triton X-100 and assayed for p24 antigen by an in-house ELISA as described before.

[1] = tested on: HIV-1IIIB-mediated cell-cell fusion (H9/HIV-1IIIB-infected cells with MT-2 cells); assay type: cell-based; conditions: calcein-AM-labeled H9/HIV-1IIIB-infected cells with MT-2 cells (ratio 1:5), 37°C, 2 h; fused cells counted under fluorescence microscope; read-out: IC50 (nM) for inhibition of HIV-1IIIB-mediated cell-cell fusion
Source text: To detect HIV-1 mediated cell-cell fusion, we performed a dye transfer assay as previously described. […] Then under an inverted fluorescence microscope (Zeiss, Germany) with an eyepiece micrometer disc, we calculated the fused and unfused calcein-labeled HIV-1-infected cells. Previously developed methods were applied to calculate the percent inhibition of cell-cell fusion and the IC50 values.

Sequence | IC50 (HIV-1 IIIB) [nM] | IC50 [1] [nM]
WMEWDREINNYTSLIHSLIERSQNQQEKNEQELL [C34 E137R] | 22.1 ± 1.8 | 5.32 ± 1.29
WMEWDREINNYTSLIHSLIEASQNQQEKNEQELL [C34 E137A] | 12.2 ± 1.28 | 4.681 ± 0.029

Reference: publication PMC3436870, “The Conserved Residue Arg46 in the N-Terminal Heptad Repeat Domain of HIV-1 gp41 Is Critical for Viral Fusion and Entry” (PLoS ONE, 2012)
